Measured values reported in paper PMC10512030, “Prolidase-proline oxidase axis is engaged in apoptosis induction by birch buds flavonol santin in endometrial adenocarcinoma cell line” (Frontiers in Molecular Biosciences, 2023).

System: p53
Assay: Western immunoblot of p53 in treated cells
Format: cell-based, human
Settings: 48 h; for expression of p53 (Western blot): Ishikawa cells
Method: Adherent and floating cells were harvested and sonicated. Obtained homogenates were supplemented with 1% protease and phosphatase inhibitor cocktail (#78440, Thermo Fisher Scientific). The Lowry assay was performed to quantify protein content in the homogenates. Proteins (20–40 μg) were resolved on 7.5%, 10%, or 12% SDS-PAGE gels using the Mini-Protean Tetra system (Bio-Rad). Proteins were transferred to nitrocellulose membranes (Bio-Rad) using the Mini Trans-Blot Cell wet blotting system (Bio-Rad). Membranes were blocked with 5% skim milk for 1 h at room temperature and probed overnight at 4°C with primary antibodies. The following antibodies purchased from Cell Signaling Technology were used: anti-caspase-9 antibody (#9508, 1:1,000), anti-caspase-8 antibody (#9746, 1:1,000), anti-caspase-3 antibody (#9662, 1:1,000), anti-caspase-7 antibody (#12827, 1:1,000), anti-PARP antibody (#9542, 1:1,000) and anti-cleaved PARP antibody (#5625, 1:1,000); anti-proline oxidase antibody (sc-376401, 1:1,000) and anti-p53 antibody (sc-126, 1:500) were obtained from Santa Cruz Biotechnology; anti-prolidase antibody (STJ27369, 1:1,000) was purchased from St John’s Laboratory and anti-actin antibody (#A2066, 1:2,000) was obtained from Sigma-Aldrich. After extensive washes, a secondary antibody solution in 5% skim milk (anti-mouse IgG-HRP, Sigma-Aldrich, #A9044, 1:5,000 or anti-rabbit IgG-HRP, Sigma-Aldrich, #A9169, 1:5000) was added for 1 h at room temperature. Membranes were incubated with ECL-HRP substrate (GE Healthcare), and the signal was detected using the BioSpectrum Imaging System (Ultra-Violet Products, Ltd.). Intensity of the bands was quantified by densitometric analysis using VisionWorks LS software (Ultra-Violet Products, Ltd.).

Structure (SMILES): COc1ccc(-c2oc3cc(O)c(OC)c(O)c3c(=O)c2OC)cc1 [santin, 5,7-dihydroxy-3,6,4′-trimethoxyflavone]
- p53 level (Western blot) (HeLa cells, santin 6.2–25 μM): significantly upregulated
- expression of p53 (Western blot) (santin 6.2–12.5 μM): slightly increased
- expression of p53 (Western blot) (santin 25–100 μM): gradually decreased
